Like-named read-outs stand apart in the source and are kept apart here.
Columns and labels:
DENV [1] = assay: microbe, parasite or virus in culture; format: cell-based, Dengue virus (DENV-2 16681 strain); settings: for EC50: read-out: Replication EC50
DENV [2] = assay: microbe, parasite or virus in culture; format: cell-based, Dengue virus (DENV-2 16681 strain)
DENV [3] = assay: microbe, parasite or virus in culture; format: cell-based, Dengue virus (DENV-2 16681 strain); remark: listed apart in the source
YFV = assay: microbe, parasite or virus in culture; format: cell-based, Yellow fever virus (YFV-17D); settings: read-out: EC50 against YFV replication
[4] = not given; remark: listed apart in the source
[5] = tested on: pBR322 supercoiled plasmid DNA; format: biochemical, Escherichia coli; also: test concentration or dose not given here
Huh7 cells = settings: human
in vitro = settings: human
[6] = Dengue virus, 72 h, read-out: Entry + Replicaion EC50
[7] = Dengue virus, Huh-7, 72 h, read-out: Entry + Replication EC50
[8] = Dengue virus, Huh-7, 72 h, read-out: Infectivity EC50
[9] = Dengue virus, Huh-7, read-out: Infectivity EC50

| Compound | EC50 (DENV [1]; Dengue virus, Huh-7, 72 h) | EC50 (DENV [2]; [6]) | EC50 (DENV [2]; [7]) | EC50 (DENV [3]; [8]) | EC50 (DENV [3]; [9]) | EC50 (YFV; Yellow fever virus, 72 h) | DPPH scavenging activity IC50 | ABTS radical scavenging activity IC50 [4] | inhibition of DNA strand breakage [5] | EC50 (DENV [1]; Dengue virus) | Replication EC50 (DENV [1]) | EC50 (DENV [1]) | Entry + Replicaion EC50 (DENV [2]) | EC50 (DENV [2]; read-out: Entry + Replication EC50) | Infectivity EC50 (DENV [3]) | EC50 (DENV [3]; read-out: Infectivity EC50) | EC50 (YFV) | CC50 (Huh7 cells) | CC50 (in vitro) |
| --- | --- | --- | --- | --- | --- | --- | --- | --- | --- | --- | --- | --- | --- | --- | --- | --- | --- | --- | --- |
| O=C(O)/C=C/c1ccc(O)c(O)c1 [Caffeic acid, caffeic acid] | 35.9 ± 1.88 µM | > 4.5 µg/mL | > 100 µM | 51.5 ± 1.19 µM | 4.63 µg/mL | > 100 µM | 6.37 µg/mL | 1.28 µg/mL | 98.98% | – | – | – | – | – | – | – | – | – | – |
| O=C(O)/C=C/c1ccc(O)cc1 [Coumaric acid, coumaric acid] | > 100 µM | 7.87 µg/mL | 48 ± 2.43 µM | 91.64 ± 0.4 µM | 15 µg/mL | 154 ± 29.8 µM | 21.17 µg/mL | 4.00 µg/mL | 89.85% | > 16.4 µg/mL | – | – | – | – | – | – | – | – | – |
| COc1cc(/C=C/C(=O)O)ccc1O [Ferulic acid, ferulic acid] | – | – | – | – | – | – | 10.14 µg/mL | 2.51 µg/mL | 94.17% | – | > 19.41 µg/mL | > 100 µM | > 19.41 µg/mL | > 100 µM | > 19.41 µg/mL | > 100 µM | > 100 µM | – | – |
| O=c1c(O)c(-c2ccc(O)cc2)oc2cc(O)cc(O)c12 [Kaempferol, kaempferol] | 31.5 ± 6.39 µM | 2.53 µg/mL | 35.5 ± 4.09 µM | 3.55 ± 0.07 µM | 0.25 µg/mL | > 50 µM | 7.40 µg/mL | 1.84 µg/mL | 97.34% | – | – | – | – | – | – | – | – | > 6.466 µg/mL | 90.4 µM |
| O=c1cc(-c2ccc(O)c(O)c2)oc2cc(O)cc(O)c12 [Luteolin, luteolin] | 107 ± 1.82 µM | 20.8 µg/mL | 72.7 ± 7.76 µM | > 100 µM | > 28.6 µg/mL | > 100 µM | 9.48 µg/mL | 2.20 µg/mL | 95.87% | 30.7 µg/mL | – | – | – | – | – | – | – | – | – |
| O=C1C[C@@H](c2ccc(O)cc2)Oc2cc(O)cc(O)c21 [Naringenin, naringenin] | > 100 µM | 28.5 µg/mL | > 100 µM | > 100 µM | > 27.2 µg/mL | 102 ± 34.4 µM | 17.45 µg/mL | 3.37 µg/mL | 92.03% | > 27.2 µg/mL | – | – | – | – | – | – | – | – | – |
| O=c1c(O)c(-c2ccc(O)c(O)c2)oc2cc(O)cc(O)c12 [Quercetin, quercetin] | 58.5 ± 7.08 µM | 32.1 µg/mL | 109 ± 17.6 µM | 104 ± 1.49 µM | 31.4 µg/mL | > 100 µM | 8.05 µg/mL | 1.93 µg/mL | 96.52% | 17.7 µg/mL | – | – | – | – | – | – | – | – | – |
| O=C(/C=C/c1ccc(O)c(O)c1)O[C@H](Cc1ccc(O)c(O)c1)C(=O)O [Rosmarinic acid, rosmarinic acid] | 76.2 ± 7.92 µM | 25.6 µg/mL | 70.9 ± 9.1 µM | 37.1 ± 0.94 µM | 13.4 µg/mL | 98 ± 21 µM | 12.28 µg/mL | 3.05 µg/mL | 93.12% | 27.4 µg/mL | – | – | – | – | – | – | – | – | > 500 µM |
| C[C@@H]1O[C@@H](OC[C@H]2O[C@@H](Oc3c(-c4ccc(O)c(O)c4)oc4cc(O)cc(O)c4c3=O)[C@H](O)[C@@H](O)[C@@H]2O)[C@H](O)[C@H](O)[C@H]1O [Rutin, rutin] | > 100 µM | > 61 µg/mL | > 100 µM | > 100 µM | > 61 µg/mL | > 100 µM | 21.86 µg/mL | 4.54 µg/mL | 88.60% | > 61 µg/mL | – | – | – | – | – | – | – | – | > 500 µM |
